Data reported in PMC3391414 (Journal of Agricultural and Food Chemistry, 2011).
Values joined by “and” are separate entries in the source; they are usually repeats but may differ in a detail not shown here. Equal values may be shown once. “Also recorded” adds a separate entry of the source. Read-outs that look alike come from different tables or passages of the source.

What was measured:
UGT1A8 [1] = molecular target: T1, UGT1A8 (Homo sapiens, UniProt Q9HAW9); test: Glucuronidation by recombinant human UGT1A8
T1 sequence (Q9HAW9 26-530): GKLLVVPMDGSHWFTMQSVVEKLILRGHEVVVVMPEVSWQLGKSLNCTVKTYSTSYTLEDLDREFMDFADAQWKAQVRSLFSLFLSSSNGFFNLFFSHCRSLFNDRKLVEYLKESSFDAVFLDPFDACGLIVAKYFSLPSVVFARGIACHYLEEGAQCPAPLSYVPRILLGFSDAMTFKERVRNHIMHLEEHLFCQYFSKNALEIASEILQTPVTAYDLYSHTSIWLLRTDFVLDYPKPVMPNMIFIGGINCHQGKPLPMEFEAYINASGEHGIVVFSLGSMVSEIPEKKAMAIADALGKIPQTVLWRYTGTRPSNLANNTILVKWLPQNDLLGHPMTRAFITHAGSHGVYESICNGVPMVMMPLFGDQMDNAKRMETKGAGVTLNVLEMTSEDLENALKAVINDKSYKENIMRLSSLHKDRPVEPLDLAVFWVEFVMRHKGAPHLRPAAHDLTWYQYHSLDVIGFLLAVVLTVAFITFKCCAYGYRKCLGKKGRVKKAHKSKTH

[2] = system: UGT 1A1, 1A3, 1A6, 1A7, 1A8, 1A9, 1A10 and 2B7; test: Glucuronidation by the panel of 8 recombinant human UGT isoforms; conditions: substrate 10 μM
UGT1A9 [3] = molecular target: T2, UGT1A9 (Homo sapiens, UniProt O60656); test: Glucuronidation by recombinant human UGT1A9
T2 sequence (O60656 26-530): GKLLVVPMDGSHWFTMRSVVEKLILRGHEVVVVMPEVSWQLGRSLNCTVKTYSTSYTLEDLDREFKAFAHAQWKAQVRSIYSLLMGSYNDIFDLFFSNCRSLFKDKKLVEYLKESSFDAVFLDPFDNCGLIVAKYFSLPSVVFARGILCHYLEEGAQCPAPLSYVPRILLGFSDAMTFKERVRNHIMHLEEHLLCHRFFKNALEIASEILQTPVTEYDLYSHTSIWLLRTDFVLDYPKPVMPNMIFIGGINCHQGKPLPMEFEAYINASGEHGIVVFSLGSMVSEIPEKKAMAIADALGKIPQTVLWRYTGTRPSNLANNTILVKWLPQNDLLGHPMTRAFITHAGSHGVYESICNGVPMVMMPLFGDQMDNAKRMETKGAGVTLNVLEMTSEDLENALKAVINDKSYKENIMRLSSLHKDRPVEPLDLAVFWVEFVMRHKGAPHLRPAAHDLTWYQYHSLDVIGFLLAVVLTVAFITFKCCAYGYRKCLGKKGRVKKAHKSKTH

UGT1A9 [4] = molecular target: T2, UGT1A9; conditions: pH 7.4
UGT2B7 = molecular target: T3, UGT2B7 (Homo sapiens, UniProt P16662); conditions: 10 μM, pH 7.4
T3 sequence (P16662 24-529): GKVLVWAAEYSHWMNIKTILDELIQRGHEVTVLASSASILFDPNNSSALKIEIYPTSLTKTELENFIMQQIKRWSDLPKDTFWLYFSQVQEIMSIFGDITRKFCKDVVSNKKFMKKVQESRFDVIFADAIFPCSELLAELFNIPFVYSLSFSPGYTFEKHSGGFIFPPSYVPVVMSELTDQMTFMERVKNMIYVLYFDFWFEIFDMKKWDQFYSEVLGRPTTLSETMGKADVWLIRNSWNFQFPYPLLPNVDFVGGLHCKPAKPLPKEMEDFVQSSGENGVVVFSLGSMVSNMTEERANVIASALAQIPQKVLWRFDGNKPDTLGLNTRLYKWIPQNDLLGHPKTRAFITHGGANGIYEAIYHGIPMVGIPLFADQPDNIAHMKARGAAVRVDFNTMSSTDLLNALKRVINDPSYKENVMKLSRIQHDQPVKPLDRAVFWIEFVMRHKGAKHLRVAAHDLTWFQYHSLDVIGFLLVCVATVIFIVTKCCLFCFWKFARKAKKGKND

UGT1A8 [5] = molecular target: T1, UGT1A8; conditions: 10 μM, pH 7.4
UGT1A10 = molecular target: T4, UGT1A10 (Homo sapiens, UniProt Q9HAW8); conditions: 10 μM, pH 7.4
T4 sequence (Q9HAW8 26-530): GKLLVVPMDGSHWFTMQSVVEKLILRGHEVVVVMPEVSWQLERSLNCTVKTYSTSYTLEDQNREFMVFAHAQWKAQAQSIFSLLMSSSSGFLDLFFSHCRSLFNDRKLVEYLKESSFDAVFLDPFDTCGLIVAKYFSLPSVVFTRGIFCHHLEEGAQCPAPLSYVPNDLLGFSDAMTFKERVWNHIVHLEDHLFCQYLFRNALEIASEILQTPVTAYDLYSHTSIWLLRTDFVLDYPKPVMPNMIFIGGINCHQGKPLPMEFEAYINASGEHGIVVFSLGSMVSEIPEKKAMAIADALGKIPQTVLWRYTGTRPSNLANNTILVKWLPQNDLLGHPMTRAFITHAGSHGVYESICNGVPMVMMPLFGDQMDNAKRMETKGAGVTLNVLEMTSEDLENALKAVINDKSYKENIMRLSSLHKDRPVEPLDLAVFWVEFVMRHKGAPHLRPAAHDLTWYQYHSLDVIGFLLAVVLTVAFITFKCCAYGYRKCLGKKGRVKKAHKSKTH

| SMILES | Hydroxyl positions glucuronidated (UGT1A8 [1]; UGT1A8, substrate 10 μM) | Degree of regiospecificity (3-O vs 7-O) (UGT1A8 [1]; UGT1A8, substrate 35 μM) | Glucuronidation and regiospecificity across the 8 UGT isoforms [2] | Degree of regiospecificity (major glucuronide in bracket) (UGT1A9 [3]; UGT1A9, substrate 2.5 μM) | Degree of regiospecificity (major glucuronide in bracket) (UGT1A9 [3]; UGT1A9, substrate 2.5 μM, listed as 5,7,4’THFnol) | Degree of regiospecificity (major glucuronide in bracket) (UGT1A9 [3]; UGT1A9, substrate 10 μM) | Hydroxyl positions glucuronidated (UGT1A9 [3]; UGT1A9, substrate 10 μM) | Degree of regiospecificity (major glucuronide in bracket) (UGT1A9 [3]; UGT1A9, substrate 10 μM, listed as 5,7,4’THFnol) | Degree of regiospecificity (3-O vs 7-O) (UGT1A9 [3]; UGT1A9, substrate 35 μM) | Degree of regiospecificity (major glucuronide in bracket) (UGT1A9 [4]; 2.5 μM) | Hydroxyl positions glucuronidated (UGT1A9 [4]; 10 μM) | Hydroxyl positions glucuronidated (UGT2B7) | Hydroxyl positions glucuronidated (UGT1A8 [5]) | Hydroxyl positions glucuronidated (UGT1A10) |
| --- | --- | --- | --- | --- | --- | --- | --- | --- | --- | --- | --- | --- | --- | --- |
| O=c1c(O)c(-c2ccc(O)cc2)oc2cc(O)cc(O)c12 [5,7,4'THFnol, 3,5,7,4’-tetrahydroxyflavone] | glucuronidated 3-O, 7-O and 4’-O | weak regiospecificity and 7-O was the preferred position | 5-O position was not significantly glucuronidated by any isoform | Moderate (3-O) | moderate regiospecificity for glucuronidation of 3-O position | Weak (3-O) | glucuronidated only 3-O and 7-O positions | only weakly preferred 3-O position; also recorded: weak regiospecificity for glucuronidation of 3-O position | no regiospecificity | – | – | – | – | – |
| O=c1cc(-c2ccccc2)oc2cc(O)cc(O)c12 [5,7DHF, 5,7-dihydroxyflavone] | – | – | – | – | – | – | – | – | – | Dominant (7-O) | glucuronidated 7-O position only | glucuronidated both 7-O and 5-O positions | glucuronidated 7-O position only | glucuronidated both 7-O and 5-O positions |
